PubChem BioAssay AID248 (DTP/NCI, 2004)
Inconclusive results and toxic doses are left out. Rule as the data show it: active = T/C of 150% or more; inactive = T/C below 125%.

Tested on: L1210 leukemia ip in BDF1 mice, survival T/C
Assay: NCI In Vivo Anticancer Drug Screen. Data for tumor model L1210 Leukemia (intraperitoneal) in B6D2F1 (BDF1) mice
Conditions: endpoint: mean survival time, higher = longer survival
Summary of the method: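 Antitumor effect is assessed in tumor-bearing animals. Survival in the compound arm is compared with a vehicle-dosed control arm and expressed as their quotient.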

[1] = dose: 100.0 mg/kg/injection, schedule: Q01DX009 (ip), vehicle: saline
[2] = dose: 200.0 mg/kg/injection, schedule: Q01DX009 (ip), vehicle: saline
[3] = dose: 400.0 mg/kg/injection, schedule: Q01DX009 (ip), vehicle: saline
[4] = dose: 100.0 mg/kg/injection, schedule: Q01DX001 (ip), vehicle: saline
[5] = dose: 200.0 mg/kg/injection, schedule: Q01DX001 (ip), vehicle: saline
[6] = dose: 400.0 mg/kg/injection, schedule: Q01DX001 (ip), vehicle: saline
[7] = dose: 100.0 mg/kg/injection, schedule: Q01DX009 (ip), vehicle: Klucel (hydroxypropylcellulose) (HPC)
[8] = dose: 200.0 mg/kg/injection, schedule: Q01DX009 (ip), vehicle: Klucel (hydroxypropylcellulose) (HPC)
[9] = dose: 400.0 mg/kg/injection, schedule: Q01DX009 (ip), vehicle: Klucel (hydroxypropylcellulose) (HPC)
[10] = dose: 100.0 mg/kg/injection, schedule: Q01DX001 (ip), vehicle: carboxymethylcellulose (CMC)
[11] = dose: 200.0 mg/kg/injection, schedule: Q01DX001 (ip), vehicle: carboxymethylcellulose (CMC)
[12] = dose: 100.0 mg/kg/injection, schedule: Q01DX001 (ip), vehicle: other
[13] = dose: 200.0 mg/kg/injection, schedule: Q01DX001 (ip), vehicle: other
[14] = dose: 400.0 mg/kg/injection, schedule: Q01DX001 (ip), vehicle: other
[15] = dose: 50.0 mg/kg/injection, schedule: Q01DX009 (ip), vehicle: Klucel (hydroxypropylcellulose) (HPC)
[16] = dose: 100.0 mg/kg/injection, schedule: Q04DX003 (ip), vehicle: Klucel (hydroxypropylcellulose) (HPC)
[17] = dose: 200.0 mg/kg/injection, schedule: Q04DX003 (ip), vehicle: Klucel (hydroxypropylcellulose) (HPC)

Measured: T/C

O=S(=O)(c1ccc(Cl)cc1)N1CCN(S(=O)(=O)c2ccc(Cl)cc2)C1
inactive: [1] 97 % of control | dose: 100.0 mg/kg/injection, schedule: Q04DX003 (ip), vehicle: saline 95 % of control | [2] 94 % of control | dose: 200.0 mg/kg/injection, schedule: Q04DX003 (ip), vehicle: saline 92 % of control | [3] 92 % of control | dose: 400.0 mg/kg/injection, schedule: Q04DX003 (ip), vehicle: saline 103 % of control

NC(CCCCN=Cc1ccccc1O)C(=O)O (stereo not drawn)
inactive: [4] 95 % of control | [5] 92 % of control | [6] 91 % of control

O=[N+]([O-])c1ccc(OS(=O)(=O)CS(=O)(=O)Oc2ccc([N+](=O)[O-])cc2)cc1
inactive: [4] 109 % of control | [5] 114 % of control

C[n+]1ccccc1/C=C/c1ccnc2c(O)cccc12
inactive: dose: 75.0 mg/kg/injection, schedule: Q01DX001 (ip), vehicle: carboxymethylcellulose (CMC) 107 % of control | dose: 150.0 mg/kg/injection, schedule: Q01DX001 (ip), vehicle: carboxymethylcellulose (CMC) 102 % of control

CCCCCC[CH2][Sn]([CH2]CCCCCC)([CH2]CCCCCC)[CH2]CCCCCC
inactive: [7] 103 % of control | [8] 101 % of control | [9] 101 % of control

c1ccc(CSc2nccc(NN=C3CCCCC3)n2)cc1
inactive: dose: 25.0 mg/kg/injection, schedule: Q01DX001 (ip), vehicle: DMSO 90 % of control | dose: 50.0 mg/kg/injection, schedule: Q01DX001 (ip), vehicle: DMSO 88 % of control | dose: 75.0 mg/kg/injection, schedule: Q01DX009 (ip), vehicle: DMSO 92 % of control | dose: 100.0 mg/kg/injection, schedule: Q01DX001 (ip), vehicle: DMSO 88 % of control | dose: 150.0 mg/kg/injection, schedule: Q01DX009 (ip), vehicle: DMSO 94 % of control | dose: 200.0 mg/kg/injection, schedule: Q01DX001 (ip), vehicle: DMSO 91 % of control | dose: 400.0 mg/kg/injection, schedule: Q01DX001 (ip), vehicle: DMSO 100 % of control

CCCC[Si](C)(C)C
inactive: [10] 103 % of control | [11] 95 % of control | dose: 400.0 mg/kg/injection, schedule: Q01DX001 (ip), vehicle: carboxymethylcellulose (CMC) 103 % of control

CCCCCCCCCCCCCCCC(=O)OC(C)COC (stereo not drawn)
inactive: dose: 50.0 mg/kg/injection, schedule: Q01DX009 (ip), vehicle: saline with Tween-80 108 % of control | [12] 102 % of control | dose: 100.0 mg/kg/injection, schedule: Q01DX009 (ip), vehicle: saline with Tween-80 98 % of control | dose: 100.0 mg/kg/injection, schedule: Q04DX003 (ip), vehicle: other 111 % of control | [13] 94 % of control | dose: 200.0 mg/kg/injection, schedule: Q01DX009 (ip), vehicle: saline with Tween-80 98 % of control | dose: 200.0 mg/kg/injection, schedule: Q04DX003 (ip), vehicle: other 107 % of control | [14] 101 % of control | dose: 400.0 mg/kg/injection, schedule: Q04DX003 (ip), vehicle: other 110 % of control

S=C1SC2(CCCCCC2)NC2=C1CCCCC2
inactive: dose: 100.0 mg/kg/injection, schedule: Q04DX002 (ip), vehicle: saline with Tween-80 103 % of control | dose: 200.0 mg/kg/injection, schedule: Q04DX002 (ip), vehicle: saline with Tween-80 89 % of control | dose: 400.0 mg/kg/injection, schedule: Q04DX002 (ip), vehicle: saline with Tween-80 89 % of control

CC(=O)OCC1OC(C(N)=O)C(OC(C)=O)C1OC(C)=O (stereo not drawn)
inactive: [12] 102 % of control | dose: 100.0 mg/kg/injection, schedule: Q04DX003 (ip), vehicle: saline with Tween-80 93 % of control | [13] 98 % of control | dose: 200.0 mg/kg/injection, schedule: Q04DX003 (ip), vehicle: saline with Tween-80 104 % of control | [14] 98 % of control | dose: 400.0 mg/kg/injection, schedule: Q04DX003 (ip), vehicle: saline with Tween-80 98 % of control

O=C1/C(=C\c2ccccc2)C2CCC(C2)/C1=C\c1ccccc1
inactive: [15] 99 % of control | [7] 102 % of control | [8] 99 % of control

CCC(NC(=O)c1ccccc1)C(=O)O (stereo not drawn)
inactive: [16] 95 % of control | [17] 101 % of control | dose: 400.0 mg/kg/injection, schedule: Q04DX003 (ip), vehicle: Klucel (hydroxypropylcellulose) (HPC) 103 % of control

COc1ccc(NC(=O)Nc2c(C)cc(C)cc2C)cc1
inactive: dose: 100.0 mg/kg/injection, schedule: Q01DX009 (ip), vehicle: gum acacia 94 % of control | dose: 100.0 mg/kg/injection, schedule: Q04DX003 (ip), vehicle: gum acacia 93 % of control | dose: 200.0 mg/kg/injection, schedule: Q01DX009 (ip), vehicle: gum acacia 96 % of control | dose: 200.0 mg/kg/injection, schedule: Q04DX003 (ip), vehicle: gum acacia 95 % of control | dose: 400.0 mg/kg/injection, schedule: Q01DX009 (ip), vehicle: gum acacia 98 % of control | dose: 400.0 mg/kg/injection, schedule: Q04DX003 (ip), vehicle: gum acacia 87 % of control

NC(=O)c1ccccc1NC(=O)Nc1ccc(Cl)cc1
inactive: [7] 98 % of control | [8] 96 % of control | [9] 91 % of control

Cc1ccc(SC2CC3CC2C2COCC32)cc1 (stereo not drawn)
inactive: [15] 98 % of control | [7] 98 % of control | [16] 90 % of control | [17] 98 % of control

COc1ccc2c(=O)c(C)c(C)oc2c1CN1CCOCC1
inactive: dose: 0.78 mg/kg/injection, schedule: Q01DX009 (ip), vehicle: saline 94 % of control | dose: 1.56 mg/kg/injection, schedule: Q01DX009 (ip), vehicle: saline 98 % of control | dose: 3.12 mg/kg/injection, schedule: Q01DX009 (ip), vehicle: saline 107 % of control | dose: 6.25 mg/kg/injection, schedule: Q01DX009 (ip), vehicle: saline 100 % of control

N#CC1C(=O)NC(=O)C(C#N)C12CCN(Cc1ccccc1)CC2 (stereo not drawn)
inactive: dose: 100.0 mg/kg/injection, schedule: Q01DX001 (ip), vehicle: Klucel (hydroxypropylcellulose) (HPC) 102 % of control | dose: 200.0 mg/kg/injection, schedule: Q01DX001 (ip), vehicle: Klucel (hydroxypropylcellulose) (HPC) 97 % of control | dose: 400.0 mg/kg/injection, schedule: Q01DX001 (ip), vehicle: Klucel (hydroxypropylcellulose) (HPC) 103 % of control

O=NC1C(Cl)C2CC1C1c3ccccc3C21 (stereo not drawn)
inactive: [4] 95 % of control | [1] 89 % of control | [5] 104 % of control | [2] 93 % of control | [6] 93 % of control | [3] 89 % of control

COCc1nc2c(=S)nc[nH]c2n1N
inactive: [10] 105 % of control | [11] 98 % of control

CCCCCCCC(N)CC(=O)O (stereo not drawn)
inactive: [7] 105 % of control | [8] 97 % of control | [9] 107 % of control

CCCCCCSc1n[nH]c(=O)[nH]c1=O
inactive: [4] 97 % of control | [5] 95 % of control | [6] 108 % of control

O=S(=O)(/N=C1C=C/C(=N\S(=O)(=O)c2ccccc2)C(Sc2ccccc2)=C\1)c1ccccc1
inactive: dose: 100.0 mg/kg/injection, schedule: Q01DX001 (ip), vehicle: saline with Tween-80 91 % of control | dose: 200.0 mg/kg/injection, schedule: Q01DX001 (ip), vehicle: saline with Tween-80 94 % of control | dose: 400.0 mg/kg/injection, schedule: Q01DX001 (ip), vehicle: saline with Tween-80 105 % of control

CC(=O)Nc1ccc(NCc2cnc3nc(N)nc(N)c3n2)cc1
inactive: dose: 20.0 mg/kg/injection, schedule: Q01DX009 (ip), vehicle: Klucel (hydroxypropylcellulose) (HPC) 96 % of control | dose: 40.0 mg/kg/injection, schedule: Q01DX009 (ip), vehicle: Klucel (hydroxypropylcellulose) (HPC) 104 % of control | dose: 80.0 mg/kg/injection, schedule: Q01DX009 (ip), vehicle: Klucel (hydroxypropylcellulose) (HPC) 96 % of control

CCOC(=O)CC1CCC/C1=N/O (stereo not drawn)
inactive: dose: 75.0 mg/kg/injection, schedule: Q01DX009 (sc), vehicle: olive oil, sesame oil, peanut oil 98 % of control | dose: 150.0 mg/kg/injection, schedule: Q01DX009 (sc), vehicle: olive oil, sesame oil, peanut oil 94 % of control | dose: 300.0 mg/kg/injection, schedule: Q01DX009 (sc), vehicle: olive oil, sesame oil, peanut oil 100 % of control
